Test results reported in article PMC5218480 (PLoS ONE, 2017).

Test system: MV-4-11 cells
Assay: Gene expression microarray analysis (Affymetrix PrimeView) and GSEA
Type: cell-based, human
Design: RFU PODN (11730768_x_at) / Fold change /veh PODN (11730768_x_at) / RFU LINC00158 (11744669_a_at) / Fold change /veh LINC00158 (11744669_a_at) / RFU DUSP10 (11751237_a_at) / Fold change /veh DUSP10 (11751237_a_at) / RFU ID3 (11757404_x_at) / Fold change /veh ID3 (11757404_x_at) / RFU PLEKHG5 (11737974_s_at) / Fold change /veh PLEKHG5 (11737974_s_at) / RFU LRRC4B (11730491_at) / Fold change /veh LRRC4B (11730491_at) / RFU GIMAP4 (11747438_a_at) / Fold change /veh GIMAP4 (11747438_a_at) / RFU KRT8 (11758183_x_at) / Fold change /veh KRT8 (11758183_x_at) / RFU CNN1 (11734310_a_at) / Fold change /veh CNN1 (11734310_a_at) / RFU VPS37D (11726825_at) / Fold change /veh VPS37D (11726825_at) / RFU C10orf10 (11716522_x_at) / Fold change /veh C10orf10 (11716522_x_at) / RFU KIR2DL2 /// KIR2DL4 /// KIR2DL5A /// KIR2DL5B /// KIR2DS1 /// KIR2DS2 /// KIR2DS3 /// KIR2DS4 /// KIR3DL3 /// KIR3DL3 /// KIR3DS1 (11738374_at) / Fold change /veh KIR2DL2 /// KIR2DL4 /// KIR2DL5A /// KIR2DL5B /// KIR2DS1 /// KIR2DS2 /// KIR2DS3 /// KIR2DS4 /// KIR3DL3 /// KIR3DL3 /// KIR3DS1 (11738374_at) / RFU C1QL1 (11718748_at) / Fold change /veh C1QL1 (11718748_at) / RFU TMPRSS4 (11747572_a_at) / Fold change /veh TMPRSS4 (11747572_a_at) / RFU HAMP (11756126_x_at) / Fold change /veh HAMP (11756126_x_at) / RFU RNFT2 (11725882_a_at) / Fold change /veh RNFT2 (11725882_a_at) / RFU NR4A2 (11747474_a_at) / Fold change /veh NR4A2 (11747474_a_at) / RFU ABCC12 (11746883_a_at) / Fold change /veh ABCC12 (11746883_a_at) / RFU TMEM136 (11760407_x_at) / Fold change /veh TMEM136 (11760407_x_at) / RFU CLDN22 /// WWC2 (11732394_at) / Fold change /veh CLDN22 /// WWC2 (11732394_at) / RFU HLA-DPB1 (11760878_x_at) / Fold change /veh HLA-DPB1 (11760878_x_at) / RFU SPINT1 (11716480_a_at) / Fold change /veh SPINT1 (11716480_a_at) / RFU GAP43 (11754022_s_at) / Fold change /veh GAP43 (11754022_s_at) / RFU A4GNT (11735810_at) / Fold change /veh A4GNT (11735810_at) / RFU PRB3 (11715151_x_at) / Fold change /veh PRB3 (11715151_x_at) / RFU TUBB4B (11761932_at) / Fold change /veh TUBB4B (11761932_at) / RFU CAPN14 (11732068_a_at) / Fold change /veh CAPN14 (11732068_a_at) / RFU TMCC2 (11721928_a_at) / Fold change /veh TMCC2 (11721928_a_at) / RFU IRGQ (11745062_a_at) / Fold change /veh IRGQ (11745062_a_at) / RFU FAM174B (11720279_a_at) / Fold change /veh FAM174B (11720279_a_at) / RFU TMPRSS4 (11748680_a_at) / Fold change /veh TMPRSS4 (11748680_a_at) / RFU FAM212B (11763350_a_at) / Fold change /veh FAM212B (11763350_a_at) / RFU PLEKHG5 (11743358_a_at) / Fold change /veh PLEKHG5 (11743358_a_at) / RFU ZSCAN30 (11745921_a_at) / Fold change /veh ZSCAN30 (11745921_a_at) / RFU CMKLR1 (11741424_a_at) / Fold change /veh CMKLR1 (11741424_a_at) / RFU LOC101060620 /// MAPK8IP1 (11723275_at) / Fold change /veh LOC101060620 /// MAPK8IP1 (11723275_at) / RFU SPTSSB (11747773_x_at) / Fold change /veh SPTSSB (11747773_x_at) / RFU PRSS12 (11739890_at) / Fold change /veh PRSS12 (11739890_at) / RFU BIN1 (11741810_x_at) / Fold change /veh BIN1 (11741810_x_at) / RFU WNT11 (11732464_a_at) / Fold change /veh WNT11 (11732464_a_at) / RFU C10orf10 (11716521_a_at) / Fold change /veh C10orf10 (11716521_a_at) / RFU C5orf56 (11738089_at) / Fold change /veh C5orf56 (11738089_at) / RFU CYB561 (11721691_x_at) / Fold change /veh CYB561 (11721691_x_at) / RFU ANKRD19P (11752326_a_at) / Fold change /veh ANKRD19P (11752326_a_at) / RFU OR2T12 /// OR2T33 /// OR2T8 (11738714_s_at) / Fold change /veh OR2T12 /// OR2T33 /// OR2T8 (11738714_s_at) / RFU VCAN (11748164_a_at) / Fold change /veh VCAN (11748164_a_at) / RFU JSRP1 (11732532_at) / Fold change /veh JSRP1 (11732532_at) / RFU KRTAP10-11 (11738290_x_at) / Fold change /veh KRTAP10-11 (11738290_x_at) / RFU MYO3A (11730013_a_at) / Fold change /veh MYO3A (11730013_a_at) / RFU EBF3 (11725865_a_at) / Fold change /veh EBF3 (11725865_a_at) / RFU CAMK2N1 (11719241_x_at) / Fold change /veh CAMK2N1 (11719241_x_at) / RFU C5orf56 (11738088_a_at) / Fold change /veh C5orf56 (11738088_a_at) / RFU OLFML3 (11715873_a_at) / Fold change /veh OLFML3 (11715873_a_at) / RFU LOC100653217 /// NTM (11731650_a_at) / Fold change /veh LOC100653217 /// NTM (11731650_a_at) / RFU MAPK11 (11762145_a_at) / Fold change /veh MAPK11 (11762145_a_at) / RFU FIZ1 (11724087_x_at) / Fold change /veh FIZ1 (11724087_x_at) / RFU OASL (11726364_x_at) / Fold change /veh OASL (11726364_x_at) / RFU SOX15 (11748057_x_at) / Fold change /veh SOX15 (11748057_x_at) / RFU CD79A (11719716_a_at) / Fold change /veh CD79A (11719716_a_at) / RFU HIST1H1D (11736915_at) / Fold change /veh HIST1H1D (11736915_at) / RFU CASKIN2 (11723855_a_at) / Fold change /veh CASKIN2 (11723855_a_at) / RFU LOC730098 (11760151_x_at) / Fold change /veh LOC730098 (11760151_x_at) / RFU OR4N2 (11742367_at) / Fold change /veh OR4N2 (11742367_at) / RFU PRRT2 (11749266_a_at) / Fold change /veh PRRT2 (11749266_a_at) / RFU SNX32 (11753110_a_at) / Fold change /veh SNX32 (11753110_a_at) / RFU CDHR5 (11726645_a_at) / Fold change /veh CDHR5 (11726645_a_at) / RFU RCAN1 (11760418_a_at) / Fold change /veh RCAN1 (11760418_a_at) / RFU FAM167A (11723789_a_at) / Fold change /veh FAM167A (11723789_a_at) / RFU FAM26E (11764081_at) / Fold change /veh FAM26E (11764081_at) / RFU ISYNA1 (11749810_s_at) / Fold change /veh ISYNA1 (11749810_s_at) / RFU ACY1 (11761880_at) / Fold change /veh ACY1 (11761880_at) / RFU 11764098_at / Fold change /veh 11764098_at / RFU SAMD14 (11745864_x_at) / Fold change /veh SAMD14 (11745864_x_at) / RFU NPB (11741838_a_at) / Fold change /veh NPB (11741838_a_at) / RFU TMPRSS6 (11731388_a_at) / Fold change /veh TMPRSS6 (11731388_a_at) / RFU KRTAP10-2 (11738614_at) / Fold change /veh KRTAP10-2 (11738614_at) / RFU ARHGAP8 /// PRR5-ARHGAP8 (11727945_x_at) / Fold change /veh ARHGAP8 /// PRR5-ARHGAP8 (11727945_x_at) / RFU KRTAP5-7 /// NADSYN1 (11734609_at) / Fold change /veh KRTAP5-7 /// NADSYN1 (11734609_at) / RFU RASL12 (11751679_a_at) / Fold change /veh RASL12 (11751679_a_at) / RFU CDKN2B (11736163_a_at) / Fold change /veh CDKN2B (11736163_a_at) / RFU PRF1 (11729649_at) / Fold change /veh PRF1 (11729649_at) / RFU, ZNF638 /// ZNF638-IT1 / Fold change vs veh, ZNF638 /// ZNF638-IT1 / RFU, PANK3 / Fold change vs veh, PANK3 / RFU, SH3YL1 / Fold change vs veh, SH3YL1 / RFU, ZEB2 / Fold change vs veh, ZEB2 / RFU, NRIP1 / Fold change vs veh, NRIP1 / RFU, PTTG1IP / Fold change vs veh, PTTG1IP / RFU, CAPN2 / Fold change vs veh, CAPN2 / RFU, MED14 / Fold change vs veh, MED14 / RFU, SNORA58 / Fold change vs veh, SNORA58 / RFU, C1orf63 / Fold change vs veh, C1orf63 / RFU, LRRFIP1 / Fold change vs veh, LRRFIP1 / RFU, NDUFAF7 / Fold change vs veh, NDUFAF7 / RFU, SLC12A2 / Fold change vs veh, SLC12A2 / RFU, IBTK / Fold change vs veh, IBTK / RFU, ESF1 / Fold change vs veh, ESF1 / Fold change vs veh, TMEM50B / RFU, TAOK1 / Fold change vs veh, TAOK1 / RFU, ACBD3 / Fold change vs veh, ACBD3 / RFU, TMA16 / Fold change vs veh, TMA16 / RFU, RWDD3 / Fold change vs veh, RWDD3 / RFU, BCAT1 / Fold change vs veh, BCAT1 / RFU, EDEM3 / Fold change vs veh, EDEM3 / RFU, TMEM33 / Fold change vs veh, TMEM33 / RFU, WDR75 / Fold change vs veh, WDR75 / RFU, AHCTF1 / Fold change vs veh, AHCTF1 / RFU, TFRC / Fold change vs veh, TFRC / RFU, ZDHHC17 / Fold change vs veh, ZDHHC17 / RFU, NOM1 / Fold change vs veh, NOM1 / RFU, ARL8B / Fold change vs veh, ARL8B / RFU, ZBTB11 / Fold change vs veh, ZBTB11 / RFU, TAMM41 / Fold change vs veh, TAMM41 / RFU, KIAA1704 /// LOC100996395 / Fold change vs veh, KIAA1704 /// LOC100996395 / RFU, ING1 / Fold change vs veh, ING1 / RFU, TRMT61B / Fold change vs veh, TRMT61B / RFU, FUBP3 / Fold change vs veh, FUBP3 / RFU, TP53 / Fold change vs veh, TP53 / RFU, TNKS2 / Fold change vs veh, TNKS2 / RFU, ZFP14 / Fold change vs veh, ZFP14 / RFU, ACTR2 / Fold change vs veh, ACTR2 / RFU, PPP3R1 / Fold change vs veh, PPP3R1 / RFU, PIK3R1 / Fold change vs veh, PIK3R1 / RFU, HNRNPA1 / Fold change vs veh, HNRNPA1 / RFU, RNF170 / Fold change vs veh, RNF170 / RFU, ZNF28 / Fold change vs veh, ZNF28 / RFU, RNGTT / Fold change vs veh, RNGTT / RFU, OGT / Fold change vs veh, OGT / RFU, BRD1 / Fold change vs veh, BRD1 / RFU, MARS / Fold change vs veh, MARS / RFU, ZNF655 / Fold change vs veh, ZNF655 / RFU, FAHD1 / Fold change vs veh, FAHD1 / RFU, BDP1 / Fold change vs veh, BDP1 / RFU, LRRCC1 / Fold change vs veh, LRRCC1 / RFU, ARID1A / Fold change vs veh, ARID1A / RFU, ZNF146 / Fold change vs veh, ZNF146 / RFU, ZNF330 / Fold change vs veh, ZNF330 / RFU, GPN3 / Fold change vs veh, GPN3 / RFU, C9orf123 / Fold change vs veh, C9orf123 / RFU, N4BP2L2 / Fold change vs veh, N4BP2L2 / RFU, ARFIP1 / Fold change vs veh, ARFIP1 / RFU, FAM179B / Fold change vs veh, FAM179B / RFU, BCL10 / Fold change vs veh, BCL10 / RFU, UHRF1BP1L / Fold change vs veh, UHRF1BP1L / RFU, BET1 / Fold change vs veh, BET1 / RFU, CNOT2 / Fold change vs veh, CNOT2 / RFU, ZNF268 / Fold change vs veh, ZNF268 / Fold change vs veh, ZNF507 / RFU, DGCR2 / Fold change vs veh, DGCR2 / RFU, WDSUB1 / Fold change vs veh, WDSUB1 / Fold change vs veh, HSP90B1 /// MIR3652 / RFU, ADSS / Fold change vs veh, ADSS / RFU, GK / Fold change vs veh, GK / RFU, ZNF148 / Fold change vs veh, ZNF148 / RFU, TAF9 / Fold change vs veh, TAF9 / RFU, SLC1A5 / Fold change vs veh, SLC1A5 / RFU, SLMO2 / Fold change vs veh, SLMO2 / RFU, ABCC4 / Fold change vs veh, ABCC4 / RFU, LOC101060439 /// RAP1B / Fold change vs veh, LOC101060439 /// RAP1B / RFU, RFX7 / Fold change vs veh, RFX7 / RFU, GTPBP10 / Fold change vs veh, GTPBP10 / RFU, CNEP1R1 / Fold change vs veh, CNEP1R1 / RFU, BIVM-ERCC5 /// ERCC5 / Fold change vs veh, BIVM-ERCC5 /// ERCC5 / RFU, ILF3 / Fold change vs veh, ILF3 / RFU 11762660_at / Fold change /veh 11762660_at / RFU VCAN (11757783_s_at) / Fold change /veh VCAN (11757783_s_at) / RFU DDX43 (11728927_at) / Fold change /veh DDX43 (11728927_at) / RFU KRT8 (11758188_x_at) / Fold change /veh KRT8 (11758188_x_at) / RFU NKD1 (11759106_at) / Fold change /veh NKD1 (11759106_at) / RFU SRD5A1 (11742802_a_at) / Fold change /veh SRD5A1 (11742802_a_at) / RFU TPSAB1 /// TPSB2 (11721975_s_at) / Fold change /veh TPSAB1 /// TPSB2 (11721975_s_at) / RFU GSTM3 (11746129_a_at) / Fold change /veh GSTM3 (11746129_a_at) / RFU IL23R (11737362_x_at) / Fold change /veh IL23R (11737362_x_at) / RFU TMEM51 (11727254_a_at) / Fold change /veh TMEM51 (11727254_a_at) / RFU PIWIL2 (11732686_x_at) / Fold change /veh PIWIL2 (11732686_x_at) / RFU ORM1 (11744905_x_at) / Fold change /veh ORM1 (11744905_x_at) / RFU CCDC152 (11743942_at) / Fold change /veh CCDC152 (11743942_at) / RFU ECM1 (11717891_a_at) / Fold change /veh ECM1 (11717891_a_at) / RFU IL23R (11748794_a_at) / Fold change /veh IL23R (11748794_a_at) / RFU TNFAIP8L3 (11732012_x_at) / Fold change /veh TNFAIP8L3 (11732012_x_at) / RFU MBOAT4 (11741988_at) / Fold change /veh MBOAT4 (11741988_at) / RFU 11764193_at / Fold change /veh 11764193_at / RFU TMEM53 (11763286_at) / Fold change /veh TMEM53 (11763286_at) / RFU MAGEB2 (11727129_at) / Fold change /veh MAGEB2 (11727129_at) / RFU TMEM200A (11744735_a_at) / Fold change /veh TMEM200A (11744735_a_at) / RFU CCDC152 (11751479_a_at) / Fold change /veh CCDC152 (11751479_a_at) / RFU FAM211A (11726209_a_at) / Fold change /veh FAM211A (11726209_a_at) / RFU RGS16 (11746705_a_at) / Fold change /veh RGS16 (11746705_a_at) / RFU VCAN (11755009_s_at) / Fold change /veh VCAN (11755009_s_at) / RFU RHOB (11743442_s_at) / Fold change /veh RHOB (11743442_s_at) / RFU RGS16 (11720943_a_at) / Fold change /veh RGS16 (11720943_a_at) / RFU RGS16 (11720944_at) / Fold change /veh RGS16 (11720944_at) / RFU, VPS4B / Fold change vs veh, VPS4B / RFU, CREB1 / Fold change vs veh, CREB1 / RFU, DNAJC13 / Fold change vs veh, DNAJC13 / RFU, GNAQ / Fold change vs veh, GNAQ / RFU, CDK5R1 / Fold change vs veh, CDK5R1 / RFU, ZRANB3 / Fold change vs veh, ZRANB3 / RFU, CUL4A / Fold change vs veh, CUL4A / RFU, CCNY / Fold change vs veh, CCNY / RFU, UFL1 / Fold change vs veh, UFL1 / RFU, COG3 / Fold change vs veh, COG3 / RFU, DIAPH2 / Fold change vs veh, DIAPH2 / RFU, SKA2 / Fold change vs veh, SKA2 / RFU, AFF3 / Fold change vs veh, AFF3 / RFU, LMF1 / Fold change vs veh, LMF1 / RFU, IPO11 / Fold change vs veh, IPO11 / RFU, DFFB / Fold change vs veh, DFFB / RFU, FOXP1 / Fold change vs veh, FOXP1 / RFU, CARD8 / Fold change vs veh, CARD8 / RFU, STRN3 / Fold change vs veh, STRN3 / RFU, ADK / Fold change vs veh, ADK / RFU, RASSF2 / Fold change vs veh, RASSF2 / RFU, WIPF1 / Fold change vs veh, WIPF1 / RFU, LARP1B / Fold change vs veh, LARP1B / RFU, RASA1 / Fold change vs veh, RASA1 / RFU, RB1 / Fold change vs veh, RB1 / RFU, PPFIA1 / Fold change vs veh, PPFIA1 / RFU, MAT2A / Fold change vs veh, MAT2A / RFU, CCT5 / Fold change vs veh, CCT5 / RFU, WDR92 / Fold change vs veh, WDR92 / RFU, CUX1 / Fold change vs veh, CUX1 / RFU, TTC7A / Fold change vs veh, TTC7A / RFU, TMEM135 / Fold change vs veh, TMEM135 / RFU, DEPTOR / Fold change vs veh, DEPTOR / RFU, CPM / Fold change vs veh, CPM / RFU, DNAJB6 / Fold change vs veh, DNAJB6 / RFU, CACNA2D3 / Fold change vs veh, CACNA2D3 / RFU, DTX4 / Fold change vs veh, DTX4 / RFU, TFCP2 / Fold change vs veh, TFCP2 / RFU, GMCL1 /// GMCL1P1 / Fold change vs veh, GMCL1 /// GMCL1P1 / RFU, AEBP2 / Fold change vs veh, AEBP2 / RFU, SNHG1 /// SNORD22 /// SNORD25 /// SNORD26 /// SNORD27 /// SNORD28 /// SNORD29 /// SNORD31 / Fold change vs veh, SNHG1 /// SNORD22 /// SNORD25 /// SNORD26 /// SNORD27 /// SNORD28 /// SNORD29 /// SNORD31 / Fold change (Aza/veh), C12orf56 (ProbeSet 11735607_a_at) / Fold change (ACY-1035/veh), C12orf56 (ProbeSet 11735607_a_at) / Fold change (Aza/veh), FGFR1OP (ProbeSet 11751329_s_at) / Fold change (ACY-1035/veh), FGFR1OP (ProbeSet 11751329_s_at) / Fold change (Aza/veh), VPS36 (ProbeSet 11739960_a_at) / Fold change (ACY-1035/veh), VPS36 (ProbeSet 11739960_a_at) / RFU SYPL1 (11715823_x_at) / Fold change /veh SYPL1 (11715823_x_at) / RFU IGFBP7 (11715501_s_at) / Fold change /veh IGFBP7 (11715501_s_at) / RFU REEP3 (11722064_at) / Fold change /veh REEP3 (11722064_at) / RFU IGLL1 (11728026_x_at) / Fold change /veh IGLL1 (11728026_x_at): dose or concentration left out as unconfirmed
Conditions: ProbeSet 11727641_at; LIST B

## Nc1ccc(-c2cccs2)cc1NC(=O)c1ccc2c(c1)cc(C1CC1)n2CCN1CCOCC1 [ACY-1035]
  Fold change vs veh, NOM1: 0.95
